Test results taken from ChEMBL document CHEMBL3991601, “The target landscape of clinical kinase drugs” (Science, 2017).
The source made the active and inactive calls. Cut-off read from the data, not from the text of the source, for most assays here: actives have a measured Kd and inactives only a lower limit.

Legend:
[1] = molecular target: T1, Serine/threonine-protein kinase ULK1 (Homo sapiens, UniProt O75385)
T1 sequence (O75385 whole entry): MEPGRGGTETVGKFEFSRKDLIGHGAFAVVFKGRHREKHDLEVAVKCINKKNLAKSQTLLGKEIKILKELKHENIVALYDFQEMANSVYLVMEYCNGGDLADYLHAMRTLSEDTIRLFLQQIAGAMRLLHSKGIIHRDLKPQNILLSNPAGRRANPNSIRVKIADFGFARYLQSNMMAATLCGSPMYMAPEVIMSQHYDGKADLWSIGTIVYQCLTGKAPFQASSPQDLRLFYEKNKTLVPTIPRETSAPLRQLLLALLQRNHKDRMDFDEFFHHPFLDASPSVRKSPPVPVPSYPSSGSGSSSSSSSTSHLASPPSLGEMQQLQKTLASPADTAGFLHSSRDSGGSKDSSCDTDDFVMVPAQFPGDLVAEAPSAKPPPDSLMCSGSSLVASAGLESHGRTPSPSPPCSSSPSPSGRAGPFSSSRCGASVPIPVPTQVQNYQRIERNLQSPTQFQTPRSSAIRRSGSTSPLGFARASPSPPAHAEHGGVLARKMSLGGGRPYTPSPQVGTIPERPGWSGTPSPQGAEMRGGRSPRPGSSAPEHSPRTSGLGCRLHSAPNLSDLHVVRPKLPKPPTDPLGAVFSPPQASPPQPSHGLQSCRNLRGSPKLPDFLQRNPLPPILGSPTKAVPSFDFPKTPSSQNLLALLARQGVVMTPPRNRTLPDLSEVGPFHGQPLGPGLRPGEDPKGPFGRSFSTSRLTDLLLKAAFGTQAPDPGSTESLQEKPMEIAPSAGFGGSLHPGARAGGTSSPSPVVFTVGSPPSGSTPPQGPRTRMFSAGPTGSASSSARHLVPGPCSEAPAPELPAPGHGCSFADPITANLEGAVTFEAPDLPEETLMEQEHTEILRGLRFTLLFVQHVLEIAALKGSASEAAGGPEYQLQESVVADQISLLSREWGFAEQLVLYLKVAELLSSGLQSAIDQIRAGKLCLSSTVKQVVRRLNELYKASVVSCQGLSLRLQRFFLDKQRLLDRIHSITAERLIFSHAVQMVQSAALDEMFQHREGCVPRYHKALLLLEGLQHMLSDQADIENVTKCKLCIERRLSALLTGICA

[2] = molecular target: T2, Dual specificity mitogen-activated protein kinase kinase 5 (Homo sapiens, UniProt Q13163)
T2 sequence (Q13163 whole entry): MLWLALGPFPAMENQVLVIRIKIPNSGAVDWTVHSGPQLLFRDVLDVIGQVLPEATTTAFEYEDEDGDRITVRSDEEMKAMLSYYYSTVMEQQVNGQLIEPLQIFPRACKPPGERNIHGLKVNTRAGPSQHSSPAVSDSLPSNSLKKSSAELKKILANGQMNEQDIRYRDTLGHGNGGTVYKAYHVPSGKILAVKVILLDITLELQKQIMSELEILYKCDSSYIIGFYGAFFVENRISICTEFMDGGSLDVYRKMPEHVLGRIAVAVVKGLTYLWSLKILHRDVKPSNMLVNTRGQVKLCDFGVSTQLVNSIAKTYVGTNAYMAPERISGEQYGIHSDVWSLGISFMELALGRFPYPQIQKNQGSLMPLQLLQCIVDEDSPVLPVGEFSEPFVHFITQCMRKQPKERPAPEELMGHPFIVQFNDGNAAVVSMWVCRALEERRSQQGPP

[3] = molecular target: T3, ATP-dependent RNA helicase DDX42 (Homo sapiens, UniProt Q86XP3)
T3 sequence (Q86XP3 whole entry): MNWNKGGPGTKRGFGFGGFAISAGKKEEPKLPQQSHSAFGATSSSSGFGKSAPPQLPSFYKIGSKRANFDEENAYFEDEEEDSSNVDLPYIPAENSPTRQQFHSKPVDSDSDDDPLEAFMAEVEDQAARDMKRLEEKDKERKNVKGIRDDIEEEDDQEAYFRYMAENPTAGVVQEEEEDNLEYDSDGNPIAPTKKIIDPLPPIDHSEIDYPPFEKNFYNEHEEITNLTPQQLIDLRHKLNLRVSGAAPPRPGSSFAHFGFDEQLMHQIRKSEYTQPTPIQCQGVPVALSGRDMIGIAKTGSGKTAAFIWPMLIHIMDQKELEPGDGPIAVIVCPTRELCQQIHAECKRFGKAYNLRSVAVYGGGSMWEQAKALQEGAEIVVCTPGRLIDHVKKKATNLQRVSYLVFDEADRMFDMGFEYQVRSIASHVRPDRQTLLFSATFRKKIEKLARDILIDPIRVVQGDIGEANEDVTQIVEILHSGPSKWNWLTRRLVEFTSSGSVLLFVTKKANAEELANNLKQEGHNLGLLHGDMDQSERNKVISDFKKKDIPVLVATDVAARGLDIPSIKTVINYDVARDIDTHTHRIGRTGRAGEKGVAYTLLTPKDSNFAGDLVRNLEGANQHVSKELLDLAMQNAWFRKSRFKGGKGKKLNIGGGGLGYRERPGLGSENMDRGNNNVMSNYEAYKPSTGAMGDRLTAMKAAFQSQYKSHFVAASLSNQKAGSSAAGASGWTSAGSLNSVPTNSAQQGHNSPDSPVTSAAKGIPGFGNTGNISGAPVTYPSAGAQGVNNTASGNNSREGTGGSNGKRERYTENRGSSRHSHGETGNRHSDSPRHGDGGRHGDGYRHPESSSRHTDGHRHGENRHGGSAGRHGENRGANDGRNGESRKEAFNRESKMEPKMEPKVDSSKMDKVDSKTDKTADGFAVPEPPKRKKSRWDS

Activin receptor type-1B = molecular target: T4, Activin receptor type-1B (Homo sapiens, UniProt P36896)
T4 sequence (P36896 whole entry): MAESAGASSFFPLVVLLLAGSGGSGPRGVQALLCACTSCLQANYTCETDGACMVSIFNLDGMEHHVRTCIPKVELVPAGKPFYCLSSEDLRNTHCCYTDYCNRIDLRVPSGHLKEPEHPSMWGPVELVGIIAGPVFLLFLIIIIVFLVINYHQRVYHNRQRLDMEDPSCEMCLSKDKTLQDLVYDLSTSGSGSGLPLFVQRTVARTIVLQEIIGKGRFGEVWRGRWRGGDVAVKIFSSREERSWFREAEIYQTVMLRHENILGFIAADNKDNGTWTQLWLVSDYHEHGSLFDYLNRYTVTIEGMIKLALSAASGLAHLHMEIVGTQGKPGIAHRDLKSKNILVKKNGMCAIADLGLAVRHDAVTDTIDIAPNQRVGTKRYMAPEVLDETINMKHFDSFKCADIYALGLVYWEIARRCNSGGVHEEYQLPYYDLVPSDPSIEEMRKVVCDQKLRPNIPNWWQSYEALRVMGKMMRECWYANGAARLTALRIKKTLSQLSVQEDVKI
Note: in the data inactive means no Kd found up to 30 µM.

Compound	Kd [1]	Kd [2]	Kd [3]	Kd (Activin receptor type-1B)
CN1CC[C@@H](c2c(O)cc(O)c3c(=O)cc(-c4ccccc4Cl)oc23)[C@@H]1CO	> 30 µM (inactive)	> 30 µM (inactive)	0.002 µM	> 30 µM (inactive)
Cc1nc(N)sc1-c1ccnc(Nc2ccc(N3CCOCC3)cc2)n1 [CYC-116]	> 30 µM (inactive)	1.48 µM (active)	> 30 µM (inactive)	1.27 µM (active)
COc1cc2nccc(Oc3ccc(NC(=O)NC4CC4)c(Cl)c3)c2cc1C(N)=O [LENVATINIB]	> 30 µM (inactive)	2.91 µM (active)	> 30 µM (inactive)	> 30 µM (inactive)
COC(=O)N[C@@H](C)CNc1nccc(-c2cn(C(C)C)nc2-c2cc(Cl)cc(NS(C)(=O)=O)c2F)n1 [ENCORAFENIB]	> 30 µM (inactive)	> 30 µM (inactive)	> 30 µM (inactive)	> 30 µM (inactive)
COCCNCc1ccc(-c2cc3nccc(Oc4ccc(NC(=S)NC(=O)Cc5ccc(F)cc5)cc4F)c3s2)nc1 [GLESATINIB]	> 30 µM (inactive)	> 30 µM (inactive)	> 30 µM (inactive)	> 30 µM (inactive)
CCS(=O)(=O)N1CC(CC#N)(n2cc(-c3ncnc4[nH]ccc34)cn2)C1 [BARICITINIB]	0.81 µM (active)	> 30 µM (inactive)	> 30 µM (inactive)	> 30 µM (inactive)
Cc1c(F)cc(C(=O)NC2CC2)cc1-c1ccc(C(=O)NCC(C)(C)C)cn1 [LOSMAPIMOD]	> 30 µM (inactive)	> 30 µM (inactive)	> 30 µM (inactive)	> 30 µM (inactive)
CO[C@H]1C[C@@H]2CC[C@@H](C)[C@@](O)(O2)C(=O)C(=O)N2CCCC[C@H]2C(=O)O[C@H]([C@H](C)C[C@@H]2CC[C@@H](OCCO)[C@H](OC)C2)CC(=O)[C@H](C)/C=C(\C)[C@@H](O)[C@@H](OC)C(=O)[C@H](C)C[C@H](C)/C=C/C=C/C=C/1C [EVEROLIMUS]	> 30 µM (inactive)	> 30 µM (inactive)	> 30 µM (inactive)	> 30 µM (inactive)
CCN1CCN(Cc2ccc(-c3cc4c(N[C@H](C)c5ccccc5)ncnc4[nH]3)cc2)CC1 [AEE-788]	> 30 µM (inactive)	9.43 µM (active)	> 30 µM (inactive)	> 30 µM (inactive)
CC(=O)Nc1cccc(-n2c(=O)n(C3CC3)c(=O)c3c(Nc4ccc(I)cc4F)n(C)c(=O)c(C)c32)c1 [TRAMETINIB]	> 30 µM (inactive)	> 30 µM (inactive)	> 30 µM (inactive)	> 30 µM (inactive)
O=C(O)[C@]1(Cc2cccc(Nc3nccs3)n2)CC[C@@H](Oc2cccc(Cl)c2F)CC1 [MK-5108]	> 30 µM (inactive)	> 30 µM (inactive)	> 30 µM (inactive)	0.425 µM (active)
C1=C/COCc2cc(ccc2OCCN2CCCC2)Nc2nccc(n2)-c2cccc(c2)COC/1 [PACRITINIB]	> 30 µM (inactive)	> 30 µM (inactive)	> 30 µM (inactive)	> 30 µM (inactive)
